What was measured:
Target C = experiment: Gene panel canonical junction qPCR assay, Target C CJ mRNA (Table 7); assay type: cell-based, human; details: Homo sapiens, read-out: Target C CJ mRNA decrease IC50
How it was run: (§1)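 Canonical-junction transcript levels are quantified by RT-qPCR after compound treatment of K562 or A673 cells. Primers or a CY5 probe overlap the exon junction; signals are normalized to GAPDH, GUSB or PPIA and to DMSO, then scaled to a set ΔCt assay window and fitted for IC50.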

MYB [1] = experiment: RT-qPCR splicing assay, MYB AJ/CJ mRNA; assay type: cell-based; details: Homo sapiens, A673 or K562 cells, 24 hours; for IC50: decrease in canonical junction mRNA; for AC50: increase in alternative junction mRNA
How it was run: (§2)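 A673 or K562 cells were treated for 24 h at 37° C with an 11-point 3-fold compound series (top 10 uM, DMSO ≤0.25%). Lysates underwent RT-qPCR for the canonical (CJ) and alternative-exon (AJ) junctions, normalized to GAPDH, GUSB or PPIA, then to DMSO (ΔΔCt), giving RQ and percentage response.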

SMN2 = experiment: Gene panel canonical junction qPCR assay, SMN2 CJ mRNA (Table 7); assay type: cell-based; details: Homo sapiens, read-out: SMN2 CJ mRNA decrease IC50
How it was run: as §1

HTT [2] = experiment: RT-qPCR splicing assay, HTT AJ/CJ mRNA; assay type: cell-based, human; details: Homo sapiens, 24 h, A673 or K562 cells; for IC50: decrease in canonical junction mRNA; for AC50: increase in alternative junction mRNA
How it was run: as §2

HTT [3] = experiment: Gene panel canonical junction qPCR assay, HTT CJ mRNA (Table 7); assay type: cell-based, human; details: Homo sapiens, read-out: HTT CJ mRNA decrease IC50
How it was run: as §1

MYB [4] = experiment: Gene panel canonical junction qPCR assay, MYB CJ mRNA (Table 7); assay type: cell-based; details: Homo sapiens, read-out: MYB CJ mRNA decrease IC50
How it was run: as §1

Compound | IC50 (Target C) [µM] | IC50 (MYB [1]) [µM] | AC50 (MYB [1]) [µM] | IC50 (SMN2) [µM] | IC50 (HTT [2]) [µM] | AC50 (HTT [2]) [µM] | IC50 (HTT [3]) [µM] | IC50 (MYB [4]) [µM]
CN(c1ccc2c(n1)OCc1cc(-c3cn[nH]c3)ccc1-2)C1CC2CC(F)(F)C(C1)N2 (centres unmarked) [Compound 248, 6,6-difluoro-N-methyl-N-[8-(1H-pyrazol-4-yl)-6H-isochromeno[3,4-b]pyridin-3-yl]-8-azabicyclo[3.2.1]octan-3-amine] | 1 to 10 | 1 to 10 | 1 to 10 | 0.1 to 1 | 0.1 to 1 | 0.1 to 1 | 0.1 to 1 | 1 to 10
c1cnn(-c2ccc3c(c2)COc2nc(N4CCC(NC5CC5)C4)ccc2-3)n1 (centres unmarked) [Compound 249, N-cyclopropyl-1-[8-(1,2,3-triazol-2-yl)-6H-isochromeno[3,4-b]pyridin-3-yl]pyrrolidin-3-amine] | > 10 | > 10 | > 10 | 0.1 to 1 | 1 to 10 | 1 to 10 | 1 to 10 | > 10
CC(C)(C)NC1CCN(c2ccc3c(n2)OCc2cc(-n4nccn4)ccc2-3)C1 (centres unmarked) [Compound 250, N-tert-butyl-1-[8-(1,2,3-triazol-2-yl)-6H-isochromeno[3,4-b]pyridin-3-yl]pyrrolidin-3-amine 2,2,2-trifluoroacetate] | 1 to 10 | 1 to 10 | 1 to 10 | 0.1 to 1 | 1 to 10 | 0.1 to 1 | 1 to 10 | 1 to 10
COc1cc(-c2ccc3c(c2)COc2nc(N4CCC(NC(C)(C)C)C4)ccc2-3)cnn1 (centres unmarked) [Compound 251, N-tert-butyl-1-[8-(6-methoxypyridazin-4-yl)-6H-isochromeno[3,4-b]pyridin-3-yl]pyrrolidin-3-amine] | < 0.1 | 0.1 to 1 | 0.1 to 1 | < 0.1 | < 0.1 | < 0.1 | < 0.1 | 0.1 to 1
CC1(NC2CCN(c3ccc4c(n3)OCc3cc(-n5nccn5)ccc3-4)C2)CC1 (centres unmarked) [Compound 252, N-(1-methylcyclopropyl)-1-[8-(1,2,3-triazol-2-yl)-6H-isochromeno[3,4-b]pyridin-3-yl]pyrrolidin-3-amine] | 1 to 10 | 1 to 10 | 1 to 10 | 0.1 to 1 | 0.1 to 1 | 1 to 10 | 0.1 to 1 | 1 to 10
CC1(NC2CCN(c3ccc4c(n3)OCc3cc(-c5cn[nH]c5)ccc3-4)C2)CC1 (centres unmarked) [Compound 253, N-(1-methylcyclopropyl)-1-[8-(1H-pyrazol-4-yl)-6H-isochromeno[3,4-b]pyridin-3-yl]pyrrolidin-3-amine] | 0.1 to 1 | 0.1 to 1 | 0.1 to 1 | < 0.1 | 0.1 to 1 | < 0.1 | 0.1 to 1 | 0.1 to 1
COc1cc(-c2cc(F)c3c(c2)COc2nc(N(C)[C@@H]4C[C@H]5CC[C@@H](C4)N5)ccc2-3)cnn1 [Compound 254, (1R,3S,5S)—N-[10-fluoro-8-(6-methoxypyridazin-4-yl)-6H-isochromeno[3,4-b]pyridin-3-yl]-N-methyl-8-azabicyclo[3.2.1]octan-3-amine; bis(trifluoroacetaldehyde)] | 0.1 to 1 | 0.1 to 1 | 0.1 to 1 | < 0.1 | < 0.1 | < 0.1 | < 0.1 | 0.1 to 1
COc1cc(-c2ccc3c(c2)COc2nc(N4CCC(NC5CC5)C4)ccc2-3)cnn1 (centres unmarked) [Compound 255, N-cyclopropyl-1-[8-(6-methoxypyridazin-4-yl)-6H-isochromeno[3,4-b]pyridin-3-yl]pyrrolidin-3-amine] | 1 to 10 | 1 to 10 | 1 to 10 | 0.1 to 1 | 0.1 to 1 | 1 to 10 | 0.1 to 1 | 1 to 10
COc1cc(-c2ccc3c(c2)COc2nc(N4CCC(NC5(C)CC5)C4)ccc2-3)cnn1 (centres unmarked) [Compound 256, 1-[8-(6-methoxypyridazin-4-yl)-6H-isochromeno[3,4-b]pyridin-3-yl]-N-(1-methylcyclopropyl)pyrrolidin-3-amine] | 0.1 to 1 | 1 to 10 | 1 to 10 | 0.1 to 1 | 0.1 to 1 | 0.1 to 1 | 0.1 to 1 | 1 to 10
CC(C)(C)N[C@@H]1CCN(c2ccc3c(n2)OCc2cc(-c4cn[nH]c4)ccc2-3)C1 [Compound 257, (3R)—N-tert-butyl-1-[8-(1H-pyrazol-4-yl)-6H-isochromeno[3,4-b]pyridin-3-yl]pyrrolidin-3-amine] | < 0.1 | 0.1 to 1 | 0.1 to 1 | < 0.1 | < 0.1 | < 0.1 | < 0.1 | 0.1 to 1

From US20240400584A1, “COMPOUNDS AND METHODS FOR MODULATING SPLICING” (REMIX THERAPEUTICS INC., priority 2021, published 2024)
